This is an account of results in patent US20160143946A1, “COMBINATION THERAPIES FOR TREATING CANCER” (priority 2014, published 2016).

Common to all, as to assay type: cell-based, human
The subject of assay [1] is HT1376 bladder cancer cell line. Kind of assay: Cell viability by MTT incorporation, HT1376 bladder cancer cells. Conditions: read-out: HT1376 IC50. The method, then: (§1) SW780 and HT1376 bladder cancer cell lines stained with anti-CD44 and anti-CD49f were examined by flow cytometry. Cells were treated with cisplatin, AR-42, sodium butyrate, valproic acid, and trichostatin A at concentrations indicated for 24 hours and cell viability was determined by MTT incorporation. The table denotes IC50s for SW780 and HT1376 cells to listed agents.
(§2) Bladder Cancer Cell Lines—SW780 and HT1376 cell lines were grown in RPMI with 10% fetal bovine serum at 37° C. with 5% CO2 and treated with cisplatin, AR-42, sodium butyrate, trichostatin A, and valproic acid at concentrations indicated.
(§3) SW780 and HT1376 cell lines were treated with cisplatin, AR-42, sodium butyrate, valproic acid, and trichostatin A at various concentrations and cell viability was determined by MTT incorporation (FIG. 1).

The test system of assay [2] is SW780 bladder cancer cell line. In words: Cell viability by MTT incorporation, SW780 bladder cancer cells. To be noted: read-out: SW780 IC50. Here is the method: as §1, §2, §3
Another assay has as its system SW780 cells. In words: Cisplatin / HDAC inhibitor combination, MTT survival with isobologram combination index, SW780. To be noted: administered at their IC90s; SW780 and HT1376 cells (Table 3). The method, then: Isobolograms were used to calculate combination indices to indicate synergy at IC50 and IC90, whereby CI<1 denotes synergy.
as §2
SW780 and HT1376 cells treated with cisplatin, AR-42, a combination cisplatin and AR-42 at a 5:1 ratio, a combination cisplatin and AR-42 in a 20:1 molar ratio, as assessed by MTT incorporation (FIG. 2).

Setting [3] is: HT1376 cells, 24 hours treatment, MTT incorporation.
[4] abbreviates: SW780 cells, 24 hours treatment, MTT incorporation.
Setting [5] is: Homo sapiens, HT-1376, HT1376 cells, 24 hours treatment, MTT incorporation.
[6] abbreviates: Homo sapiens, SW780 cells, 24 hours treatment, MTT incorporation.

Like-named read-outs stand apart in the source and are kept apart here.

In the case of `N.N.[Cl][Pt][Cl]` [Cisplatin], the IC50 was found to be 30.5 µM in assay [1] (setting [3]) and 8.5 µM in assay [2] (setting [4]).
Take `CCCC(=O)[O-].[Na+]` [Sodium Butyrate]: the IC50 in assay [1] (Homo sapiens, HT-1376, 24 h) worked out at 8530 µM; in assay [2] (Homo sapiens, SW780, 24 h), 3780 µM. The synergy with cisplatin result in the assay on SW780 cells is “synergy”.
Consider `CC(/C=C/C(=O)NO)=C\[C@@H](C)C(=O)c1ccc(N(C)C)cc1` [Trichostatin A], for which the IC50 in assay [1] (setting [3]) is 0.12 µM; in assay [2] (setting [4]), 0.25 µM.
In the case of `CCCC(CCC)C(=O)O` [Valproic Acid], the IC50 in assay [1] (setting [5]) was 7390 µM; in assay [2] (setting [6]), 6040 µM.
As to `CC(C)[C@H](C(=O)Nc1ccc(C(=O)NO)cc1)c1ccccc1` [AR-42], the results for the IC50 in assay [1] (setting [5]) and in assay [2] (setting [6]) were 1.4 µM and 1.41 µM, respectively. In addition, the synergy with cisplatin result in the assay with SW780 cells is on record as “synergy”.
